Results published in PMC12728982, “Multichiral Half-Sandwich Ru(II) and Os(II) Anticancer Complexes Containing a Glutathione Synthesis Inhibitor” (Organometallics, 2025).

Experiments:
IGROV-1 cells = test: Comet assay (DNA damage in single cells); type: cell-based, human; conditions: IGROV-1, 24 h; 100 μM for Cisplatin and Os-Gly
Protocol: Comet assays were carried out to determine whether the complexes caused DNA damage in single cells. […] Cisplatin DNA-adducts have been shown previously to inhibit DNA migration through electrophoresis presenting as less tail movement. […] Excess dye was removed, and cells were re-suspended in PBS. Samples were analysed by flow cytometry using the BD FACSMelodyTM Cell Sorter (R653880001) and data analysis on FlowJoTM v10 Software (BD Life Sciences).9 2.11 Apoptosis IGROV-1 cells (1 x 106) were seeded in a 6-well plate and incubated for 24 h at 310 K. Stock solutions (200 μM) of the complexes were prepared by dissolving the compound in 5% (v/v) DMSO followed by dilution with DMEM and then diluted to desired concentrations. All complexes (50 μM and 100 μM) were added to the wells and incubated for 24 h. Cell pellets were collected using 0.25% trypsin and centrifuged (500 x g, 5 mins at 277 K). Cell pellets were washed with PBS and then stained with the commercial Apoptosis Detection Kit-FITC Annexin V and PI (BioLegend; San Diego, USA), as per manufacturer's instructions. Briefly, a staining solution of FITC Annexin V (1 unit/100 μL) diluted 1 in 100 and 1 μg/mL PI was added to the cells (30 min, room temperature). Excess dye was removed, and cells were re-suspended in PBS. Samples were analysed by flow cytometry using the BD FACSMelodyTM Cell Sorter (R653880001) and data analysis on FlowJoTM v10 Software (BD Life Sciences).9 2.12 Comet assay IGROV-1 cells (8×10^5 cells per well) were seeded into 6-well plates and incubated for 24 h. Test compounds (50 μM and 100 μM) were added to the wells and incubated at 3 10 K for 24 h. Cells were enzymatically detached using trypsin and cell concentration adjusted to 2×10^4 cells /mL in ice-cold PBS. 0.4 mL of cell suspension was added to 1.2 mL of 1% low melting point agarose in H 2O, then immediately added to microscope slides pre -coated in 1% agarose. […] Twenty comet images per sample were taken by confocal microscopy and analysed by OpenComet. […]

[1] = system: MRC-5 normal lung fibroblasts; test: Antiproliferative activity, SRB assay; type: cell-based, human; conditions: for IC50: MRC-5, SRB assay, 24 h treatment, 72 h recovery
Protocol: (§1) The antiproliferative activity against human A549 lung, IGROV-1 ovarian, and HeLa cervical cancer cell lines and MRC5 normal lung fibroblasts was determined by the sulforhodamine B (SRB) assay. […] IGROV-1 is known to be cisplatin-sensitive and subject to hypermutation.
(§2) 2.8 Mammalian cell culture
(§3) The human ovarian cancer cell line, IGROV-1; the human cervical cancer cell line, HeLa; the human […]; and the human non-cancerous lung fibroblast cell line, MRC5 were cultured in DMEM supplemented with 10% FBS and 100 units/mL of penicillin and 100 µg/mL of streptomycin (1x pen/strep). All cell lines were incubated at 310 K with 5% CO2 and 95% humidity for routine maintenance and during drug treatment.
(§4) 2.9 Sulforhodamine (SRB) cytotoxicity assay
(§5) Cells were seeded at 5 × 10^3 cells per well and incubated at 310 K for 48 h. Stock solutions (200 µM) of the complexes were prepared by dissolving the compound in 5% (v/v) DMSO followed by dilution with DMEM and serial dilutions with DMEM were prepared (0.1 µM-200 The cells were exposed to the drug for 24 h. The drug was then removed, and cells were allowed to recover for 72 h, in drug-free media. Cell viability was then determined by the SRB colorimetric assay. The solubilised dye absorbance was analysed on a microplate reader (Thermo Scientific Multiskan FC with Scanit software 4.1) at 470 nm. Data were normalized using Microsoft Excel, and dose-response curves fitted using Origin 2016. The IC50 values

[2] = system: IGROV-1 ovarian carcinoma cells; test: Antiproliferative activity, SRB assay; type: cell-based, human; conditions: for IC50: IGROV-1, SRB assay, 24 h treatment, 72 h recovery
Protocol: as §1, §2, §3, §4, §5

[3] = system: A549 lung carcinoma cells; test: Antiproliferative activity, SRB assay; type: cell-based, human; conditions: A549; SRB assay, 24 h treatment, 72 h recovery
Protocol: as §1, §2, §3, §4, §5

[4] = system: IGROV-1 human ovarian cancer cells; test: Cell cycle arrest by flow cytometry (PI); type: cell-based; conditions: 24 h treatment; for Progression to G2/M: IGROV-1, 50 or 100 μM
Protocol: 2 Effect of Os/Ru-LBSO and glycine complexes at 50 or 100 μM on the phases of the cell cycle of IGROV-1 human ovarian cancer cells compared with untreated (control) cells. Percentage of cells in G1 (black bar, cell growth), S (gray, DNA synthesis), G2/M, (white, growth/mitosis) as determined by flow cytometry after 24 h treatment with complexes. […] Standard deviations calculated for N = 3 *p-value <0.05 comparing to untreated sample.
as §2
as §3, with “treatment. […]” for “treatment.”
IGROV-1 cells (1 x 10^6 cells per well) were seeded in a 6-well plate and incubated for 24 h at 310 K. Stock solutions (200 µM) of the complexes were prepared by dissolving the compound in 5% (v/v) DMSO followed by dilution with DMEM and then diluted to desired concentrations. All complexes (50 µM and 100 µM) were added to the wells and incubated for 24 h. Cell pellets were collected using 0.25% trypsin and centrifuged (500 x g, 5 mins at 4 °C). Then washed in PBS and fixed with 100% ice-cold ethanol for 20 min on ice. The ethanol […]
was aspirated, cells washed in ice-cold PBS and then stained with 0.2 mg/mL RNase, 0.05 mg/mL propidium iodide (PI) in PBS for 25 min in the dark and on ice. Excess dye was removed, and cells were re-suspended in PBS. Samples were analysed by flow cytometry using the BD

[5] = system: HeLa cervical adenocarcinoma cells; test: Antiproliferative activity, SRB assay; type: cell-based, human; conditions: SRB assay, 24 h treatment, 72 h recovery
Protocol: as §1, §2, §3, §4
as §5, with “µM-200 µM).” for “µM-200”

[6] = Aqueous stability / hydrolysis monitored by 1H NMR; type: physicochemical; conditions: 3:7 v/v methanol-d4:D2O, 310 K, 1H NMR
[7] = system: intracellular GSH in IGROV-1 cells; test: Glutathione colorimetric detection assay; type: cell-based, human; conditions: IGROV-1, 50 μM, 24 h
Protocol: This lowering was not observed for Ru-LBSO which is not active in this cell line. Other papers have shown a similar result by including L-BSO as an additional agent, therefore showing L-BSO remains inhibitory.
Once the agarose had set , the slides were submerged in alkaline lysis solution (1.3 M NaCl, 100 mM Na2EDTA, 0.1% sodium lauryl sarcosinate, 0.26 M NaOH pH > 13) and incubated overnight at 277 K in the dark. The following day the slides were rinsed for 20 min three times in the electrophoresis solution ([…] NaOH, 2mM Na 2EDTA pH 12.3). The slides were then placed into the electrophoresis tank with fresh electrophoresis buffer, 1 -2 mm above the slides. Electrophoresis was run at 18.3 V for 25 min. Once electrophoresis was complete, slides were rinsed in distilled water and placed in 2.5 µg/mL PI for 20 min. After staining, cells were rinsed in distilled water to remove excess stain. Twenty comet images per sample were taken by confocal microscopy and analysed by OpenComet. 10
1 x 10^6 IGROV-1 cells were seeded in a 6-well plate and incubated for 24 h at 310 K. All complexes (50 µM and 100 µM) were added to the wells and incubated for 24 h. […]
Percentage of IGROV -1 cancer cells in non -apoptotic, apoptotic (early and late) or necrotic phases determined by flow cytometry after 24 h treatment with Os/Ru L -BSO and glycine complexes. […] Standard deviations calculated for N=3. […]

Molecule | Comet tails vs untreated cells (IGROV-1 cells) | IC50 [1] [µM] | IC50 [2] [µM] | IC50 [3] [µM] | Progression to G2/M [4] | IC50 [5] [µM] | Activity toward normal lung cells ([1]; MRC-5, SRB) | Activity against IGROV-1 ([2]; IGROV-1, SRB) | Time to hydrolysis [6] [min] | Lowering of intracellular GSH level [7] | G1 arrest (percentage of cells in G1) ([4]; IGROV-1, 100 μM, vs untreated)
[NH2][Pt]([NH2])([Cl])[Cl] [CDDP, Cisplatin, reference compound] | statistically significantly shorter comet tails | 13.5 ± 0.9 | 20 ± 4.8 | 3 ± 0.2 | – | – | – | – | – | – | –
Cc1ccc(C(C)C)cc1.O=C1C[NH][Os]([Cl])[O]1 [Os-Gly, [(p-cymene)Os(Gly)Cl]] | statistically significantly shorter comet tails | 107 ± 2 | > 200 | > 200 | little progression to G2/M | > 200 | – | – | – | – | –
Cc1ccc(C(C)C)cc1.O=C1C[NH][Ru]([Cl])[O]1 [Ru-Gly, [(p-cymene)Ru(Gly)Cl]] | – | 112 ± 4 | > 200 | > 200 | little progression to G2/M | > 200 | – | – | – | – | –
[(p-cymene)Ru(L-BSO)Cl] [Ru-LBSO] | – | 4.3 ± 0.7 | 108 ± 8 | > 200 | – | > 200 | some activity | not active | ≤ 15 | not observed | significantly increased
